Measurements published in patent US9937151B2, “Carbapenem antibacterials with gram-negative activity” (priority 2010, dated 2018).
In brackets after ≈: the same amount, converted by molar mass.

Test system: G(−) bacterial strains
Experiment: Dilution antimicrobial susceptibility tests (MIC, NCCLS agar dilution / broth dilution)
Assay type: cell-based, Gram-negative organisms
Details: unit assumed
Description: The MIC (minimum inhibitory concentration) was determined by the NCCLS (National Committee for Clinical Laboratory Standards) methods 2000. Methods for dilution antimicrobial susceptibility testing for bacteria that growth aerobically (M7-A5, vol. 20, No. 2). The agar dilution method for determining antimicrobial susceptibility was carried out using Mueller-Hinton agar. A final inoculum of 10^4 CFU/spot was applied with an inoculation device. Broth dilution tests were performed with 5×10^5 CFU/well in 96 well plates. The susceptibilities of streptococci were determined by Mueller-Hinton agar supplemented with 5% sheep blood. All assays were run with the indicated control strains, available from the ATCC (American Type Culture Collection, Rockville, Md.).
Abbreviations used in Table 1 are defined as follows: Cf-R: Ceftazidime Resistance, Ci-R: Ciprofloxacin Resistance, Gen-R: Gentamycin Resistance, Imp-R: Imipenem Resistance, Mp-R: Meropenem Resistance, Ofx-R: Ofloxacin Resistance, B+: β-lactamase Production, AmpC: AmpC-lactamase Hyper production, CBPase: Carbapenemase Production.

[1] = strain #1 Acinetobacter calcoaceticus
[2] = strain #2 Acinetobacter baumannii, Cf-R, Ci-R
[3] = strain #3 Acinetobacter baumannii, Cf-R, Ci-R, Mp-I
[4] = strain #4 Acinetobacter baumannii, Cf-R, Imp-I, CBPase
[5] = strain #7 Enterobacter aerogenes
[6] = strain #8 Enterobacter cloacae, Cf-R, B+
[7] = strain #9 Enterobacter cloacae, Cf-R
[8] = strain #10 Escherichia coli, Ci-R
[9] = strain #11 Escherichia coli, Ci-R, AmpC
[10] = strain #15 Klebsiella pneumoniae
[11] = strain #16 Moraxella catarrhalis
[12] = strain #21 Providencia rettgeri
[13] = strain #22 Salmonella typhimurium
[14] = strain #25 Shigella dysenteriae
[15] = strain #28 Stenotrophomonas maltophilia
[16] = strain #29 Pseudomonas aeruginosa
[17] = strain #30 Pseudomonas aeruginosa
[18] = strain #31 Pseudomonas aeruginosa, Ofx-R
[19] = strain #32 Pseudomonas aeruginosa, Cf-R
[20] = strain #33 Pseudomonas aeruginosa, Ci-R
[21] = strain #34 Pseudomonas aeruginosa, Gen-R
[22] = strain #35 Pseudomonas aeruginosa, Ip-R
[23] = strain #36 Pseudomonas aeruginosa, Cf-R, Ci-R, Mp-R

SMILES | MIC [1] | MIC [2] | MIC [3] | MIC [4] | MIC (strain #5 Citrobacter diversus) | MIC (strain #6 Citrobacter freundii) | MIC [5] | MIC [6] | MIC [7] | MIC [8] | MIC [9] | MIC (strain #12 Escherichia coli) | MIC (strain #13 Escherichia coli) | MIC (strain #14 Klebsiella oxytoca) | MIC [10] | MIC [11] | MIC (strain #17 Morganella Morganii) | MIC (strain #18 Morganella Morganii) | MIC (strain #19 Proteus vulgaris) | MIC (strain #20 Proteus mirabilis) | other results
CC(=O)NC(=N)N[C@H]1CCN(CC2=C(C(=O)O)N3C(=O)C([C@@H](C)O)C3[C@H]2C)C1 (stereo partly drawn) [Compound 111] | 1 µg/mL (≈ 2.54 µM) | 4 µg/mL (≈ 10.2 µM) | 4 µg/mL (≈ 10.2 µM) | 4 µg/mL (≈ 10.2 µM) | 0.5 µg/mL (≈ 1.27 µM) | 0.5 µg/mL (≈ 1.27 µM) | 2 µg/mL (≈ 5.08 µM) | 1 µg/mL (≈ 2.54 µM) | 1 µg/mL (≈ 2.54 µM) | 0.5 µg/mL (≈ 1.27 µM) | 0.5 µg/mL (≈ 1.27 µM) | 0.5 µg/mL (≈ 1.27 µM) | 0.5 µg/mL (≈ 1.27 µM) | 1 µg/mL (≈ 2.54 µM) | 1 µg/mL (≈ 2.54 µM) | ≤ 0.008 µg/mL | 4 µg/mL (≈ 10.2 µM) | 2 µg/mL (≈ 5.08 µM) | 2 µg/mL (≈ 5.08 µM) | 0.5 µg/mL (≈ 1.27 µM) | MIC [12]: 2 µg/mL (≈ 5.08 µM); MIC [13]: 0.5 µg/mL (≈ 1.27 µM); MIC (strain #23 Serratia marcescens): 1 µg/mL (≈ 2.54 µM); MIC (strain #24 Serratia marcescens): 2 µg/mL (≈ 5.08 µM); MIC [14]: 0.5 µg/mL (≈ 1.27 µM); MIC (strain #26 Shigella sonnei): 0.5 µg/mL (≈ 1.27 µM); MIC (strain #27 Shigella flexneri): 0.5 µg/mL (≈ 1.27 µM); MIC [15]: 0.5 µg/mL (≈ 1.27 µM); MIC [16]: 4 µg/mL (≈ 10.2 µM); MIC [17]: 4 µg/mL (≈ 10.2 µM); MIC [18]: 1 µg/mL (≈ 2.54 µM); MIC [19]: 4 µg/mL (≈ 10.2 µM); MIC [20]: 8 µg/mL (≈ 20.3 µM); MIC [21]: 4 µg/mL (≈ 10.2 µM); MIC [22]: 8 µg/mL (≈ 20.3 µM); MIC [23]: > 32 µg/mL
C[C@@H](O)C1C(=O)N2C(C(=O)O)=C(CN3CC[C@@H](C(N)=O)C3)[C@H](C)C12 (stereo partly drawn) [Compound 115] | 0.5 µg/mL (≈ 1.48 µM) | 1 µg/mL (≈ 2.96 µM) | 2 µg/mL (≈ 5.93 µM) | 1 µg/mL (≈ 2.96 µM) | 0.25 µg/mL (≈ 0.741 µM) | 0.25 µg/mL (≈ 0.741 µM) | 1 µg/mL (≈ 2.96 µM) | 0.13 µg/mL (≈ 0.385 µM) | 0.25 µg/mL (≈ 0.741 µM) | 0.25 µg/mL (≈ 0.741 µM) | 0.25 µg/mL (≈ 0.741 µM) | 0.25 µg/mL (≈ 0.741 µM) | 0.25 µg/mL (≈ 0.741 µM) | 0.25 µg/mL (≈ 0.741 µM) | 0.5 µg/mL (≈ 1.48 µM) | ≤ 0.008 µg/mL | 2 µg/mL (≈ 5.93 µM) | 2 µg/mL (≈ 5.93 µM) | 1 µg/mL (≈ 2.96 µM) | 0.25 µg/mL (≈ 0.741 µM) | MIC [12]: 1 µg/mL (≈ 2.96 µM); MIC [13]: 0.25 µg/mL (≈ 0.741 µM); MIC (strain #23 Serratia marcescens): 0.5 µg/mL (≈ 1.48 µM); MIC (strain #24 Serratia marcescens): 1 µg/mL (≈ 2.96 µM); MIC [14]: 0.25 µg/mL (≈ 0.741 µM); MIC (strain #26 Shigella sonnei): 0.25 µg/mL (≈ 0.741 µM); MIC (strain #27 Shigella flexneri): 0.25 µg/mL (≈ 0.741 µM); MIC [15]: 0.25 µg/mL (≈ 0.741 µM); MIC [16]: 4 µg/mL (≈ 11.9 µM); MIC [17]: 4 µg/mL (≈ 11.9 µM); MIC [18]: 1 µg/mL (≈ 2.96 µM); MIC [19]: 4 µg/mL (≈ 11.9 µM); MIC [20]: 8 µg/mL (≈ 23.7 µM); MIC [21]: 8 µg/mL (≈ 23.7 µM); MIC [22]: 8 µg/mL (≈ 23.7 µM); MIC [23]: > 32 µg/mL
